Experiment [1] deals with castrate-resistant metastatic prostate cancer. As to conditions: docetaxel alone, standard course; response = complete remission, partial remission or no disease progression; cited from earlier work.
The test system is the same in experiment [2]. Kind of experiment: Example 3: docetaxel course, with or without rectal dehydroequol as adjuvant, in castrate-resistant metastatic prostate cancer. The settings on record: stated objective; dehydroequol 400 mg once daily rectally for 7 days as adjuvant to docetaxel 175 mg/m2 iv every 21 days. Format: in vivo, human. How it is done: A patient with castrate-resistant metastatic prostate cancer with secondary cancers in several inguinal lymph nodes and multiple bones (thoracic vertebrae, femur, ribs, humerus). Having progressed on hormone-ablation therapy, the standard next step for this patient is to receive a course of treatment with docetaxel involving an intravenous injection of a dosage of […] over 3 hours every 21 days for 18 weeks.
Dehydroequol is administered as adjuvant therapy at a dosage of 400 mg once daily for 7 consecutive days commencing on the day prior to the administration of docetaxel and repeated for the duration of the course of docetaxel therapy. The dehydroequol is administered rectally in a solid 2 gram suppository dosage form in a theobroma oil base.

In experiment [3] the test system is late-stage ovarian cancer. The experiment is described as follows: Example 2: rectal dehydroequol with intravenous carboplatin in a patient with platin- and taxane-refractory late-stage ovarian cancer. Format: in vivo, human. As to conditions: stated objective; dehydroequol 400 mg every 12 hours rectally for 7 days + carboplatin AUC 6 iv on Day 2, every 28 days, 6 courses. An excerpt: A patient with late-stage ovarian cancer. Previously treated intravenously with multiple rounds of carboplatin and paclitaxel and now displaying multi-drug resistance by showing disease progression while undergoing combined therapy with carboplatin/paclitaxel. This patient meets the definition of platin- and taxane-refractory disease.
The patient is showing multiple tumours throughout the abdominal cavity and is suffering failing health although still considered sufficiently robust to withstand further cytotoxic chemotherapy were it considered likely to provide a benefit.
The patient is treated with 400 mg of dehydroequol every 12 hours for 7 consecutive days. The dehydroequol is administered rectally in a solid 2 gram suppository dosage form in a theobroma oil base.
Carboplatin is injected intravenously at a dosage equivalent to an AUC of 6 on Day 2 of the 7-day dehydroequol treatment regimen.
This regimen is repeated every 28 days for a total of 6 courses of treatment.

In the case of `CC(=O)O[C@@]12CO[C@@H]1C[C@H](O)[C@@]1(C)C(=O)[C@H](O)C3=C(C)[C@@H](OC(=O)[C@H](O)[C@@H](NC(=O)OC(C)(C)C)c4ccccc4)C[C@@](O)([C@@H](OC(=O)c4ccccc4)[C@H]21)C3(C)C` [docetaxel], the “response rate (reported)” value in experiment [1] is given as 30%.

For the compound `Oc1ccc(C2=Cc3ccc(O)cc3OC2)cc1` [dehydroequol, 2H-1-Benzopyran-7-0,1,3-(4-hydroxyphenyl)], the “response rate (objective)” value in experiment [2] is on record as 40-100%. The “prolong the survival of the patient (additional)” value in experiment [3] is 12 months.
